Source: publication PMC12152883, “Bile acids inhibit equilibrative adenosine transport to alter adenosine receptor signaling in cholestasis” (The Journal of Biological Chemistry, 2025)
Where “and” joins values, the source holds several entries; their conditions need not be identical. Identical values can stand only once. Like-named read-outs stand apart in the source and are kept apart here.

Columns and labels:
Assay type in all cases: cell-based
[1] = molecular target: T1, ENT1 (Homo sapiens, UniProt Q99808); test: Inhibition of 3H-nucleoside influx by BAs in ENT1-expressing Xenopus oocytes; settings: 3H-Ado 20 μM, sodium-free buffer; for ENT1 % uptake inhibition (Ado): BA 100 μM
T1 construct: The complete ORF of ENT1 (amplified using forward primer); expressed in transfected cells; host or cells: Xenopus laevis oocytes injected with in vitro-transcribed capped mRNA from pOX-hENT1
T1 sequence (Q99808 1-456): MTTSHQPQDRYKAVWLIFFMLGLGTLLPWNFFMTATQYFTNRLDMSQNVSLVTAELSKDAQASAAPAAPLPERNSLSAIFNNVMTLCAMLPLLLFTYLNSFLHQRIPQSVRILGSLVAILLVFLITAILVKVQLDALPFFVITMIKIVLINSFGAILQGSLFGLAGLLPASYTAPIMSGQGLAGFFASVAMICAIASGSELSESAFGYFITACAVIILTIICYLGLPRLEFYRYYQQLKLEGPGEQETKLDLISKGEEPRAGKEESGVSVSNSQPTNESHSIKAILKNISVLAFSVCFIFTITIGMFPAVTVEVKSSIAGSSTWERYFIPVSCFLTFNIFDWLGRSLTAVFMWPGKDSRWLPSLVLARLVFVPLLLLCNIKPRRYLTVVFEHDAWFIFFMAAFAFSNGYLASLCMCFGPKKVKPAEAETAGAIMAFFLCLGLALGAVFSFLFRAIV
Excerpt: (§1) We expressed individual ENTs (ENT1, ENT2, and ENT3) in X. laevis oocytes (as described above) and analyzed the Ado influx from each of the ENTs in the presence of different BAs to better understand whether the inhibition profiles differ across human ENTs. […] We also conducted an analysis of the concentration-dependent inhibition of Ado transport to estimate the IC50 values of the BAs (Fig. 4, D–F and Table 2).
(§2) Inhibition of Ado influx in H2O- and ENT-injected oocytes by treatment with different BAs at 100 μM. D–F, concentration-dependent inhibition of Ado influx in ENT-injected oocytes by different BAs. The bars represent the mean ± SD (n = 8–12 oocytes). A representative experiment from 3 to 5 independent experiments is presented. Statistical analysis was performed using one-way ANOVA with Dunnett’s multiple comparisons test; ∗p < 0.032, ∗∗p < 0.0021, ∗∗∗∗p < 0.0001.
(§3) The generated pOX expression constructs were linearized with either the Not1 or Sac1 restriction enzymes. The digested products were purified via phenol‒chloroform extraction. The mRNAs were synthesized using mMESSAGE mMACHINE (Ambion) transcription kits according to the manufacturer’s instructions. The mRNAs were purified via lithium precipitation. Oocytes were procured from Ecocyte. Prior to experiments, procured oocytes were defolliculated by treating with collagenase A-OR II solution followed by washing with Barth’s solution. Following microscopic verification, selected oocytes were incubated to recover overnight at 25 °C in a shaker incubator. Fifty nanoliters (400–800 ng/μl) of equal amounts of mRNAs were injected into defolliculated oocytes the next day. Expression of plasmids was analyzed after RNA isolation from oocyte extracts and conducting qPCR analysis with gene-specific primers as described earlier ([30]). The injected oocytes were incubated at 15 °C for 24 h before transport assays were performed. […] Uptake was terminated by washing the oocytes three times with arrest buffer containing 20 mM uridine. Individual oocytes were shaken overnight in 10% SDS for complete dissolution, and then the radioactivity was quantified with a Beckman liquid scintillation counter. The data are presented as the mean ± SD (n = 8–12 oocytes). A representative experiment from 3 to 5 independent experiments is presented.

[2] = molecular target: T2, ENT3 (Homo sapiens, UniProt Q9BZD2); test: Inhibition of 3H-nucleoside influx by BAs in ENT3-expressing Xenopus oocytes
T2 construct: plasma membrane–directed ENT3 with a truncated N-terminus (that harbors lysosomal targeting motif); expressed in transfected cells; host or cells: Xenopus laevis oocytes injected with in vitro-transcribed mRNA from pOX-Δ36hENT3
T2 sequence (Q9BZD2 with tags, fused parts or gaps): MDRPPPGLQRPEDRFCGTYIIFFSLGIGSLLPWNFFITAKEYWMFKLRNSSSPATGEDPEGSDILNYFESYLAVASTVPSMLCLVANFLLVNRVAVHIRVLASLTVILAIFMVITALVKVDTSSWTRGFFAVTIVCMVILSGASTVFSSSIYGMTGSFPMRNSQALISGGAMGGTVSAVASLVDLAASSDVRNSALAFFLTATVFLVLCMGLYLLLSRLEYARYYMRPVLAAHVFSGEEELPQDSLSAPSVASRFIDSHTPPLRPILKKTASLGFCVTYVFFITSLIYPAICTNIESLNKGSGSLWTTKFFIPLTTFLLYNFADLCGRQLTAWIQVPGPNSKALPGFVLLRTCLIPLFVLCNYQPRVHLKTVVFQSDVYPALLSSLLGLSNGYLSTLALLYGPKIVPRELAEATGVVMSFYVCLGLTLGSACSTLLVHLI
Excerpt: as §1, §2, §3

[3] = molecular target: T3, ENT2 (Homo sapiens, UniProt Q14542); test: Inhibition of 3H-nucleoside influx by BAs in ENT2-expressing Xenopus oocytes; design: expressed in transfected cells; host or cells: Xenopus laevis oocytes injected with in vitro-transcribed capped mRNA from pOX-hENT2
T3 sequence (Q14542 1-456): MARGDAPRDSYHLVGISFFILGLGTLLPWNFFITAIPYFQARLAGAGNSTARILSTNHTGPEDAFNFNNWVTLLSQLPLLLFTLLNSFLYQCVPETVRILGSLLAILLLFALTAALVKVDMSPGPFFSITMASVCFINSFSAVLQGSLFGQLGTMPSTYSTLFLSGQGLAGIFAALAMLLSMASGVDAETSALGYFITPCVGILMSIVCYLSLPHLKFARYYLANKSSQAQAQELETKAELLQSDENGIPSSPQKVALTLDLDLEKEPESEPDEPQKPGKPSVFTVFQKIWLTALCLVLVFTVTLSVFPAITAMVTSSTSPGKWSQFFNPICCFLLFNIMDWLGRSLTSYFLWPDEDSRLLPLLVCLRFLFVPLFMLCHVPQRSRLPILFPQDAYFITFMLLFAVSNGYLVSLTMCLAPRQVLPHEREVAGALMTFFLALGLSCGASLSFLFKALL
Excerpt: as §1, §2, §3

[4] = read-out: ENT1 IC50 (Ado uptake)
[5] = 3H-Ado 20 μM, sodium-free buffer, read-out: ENT3 IC50 (Ado uptake)
[6] = BA 100 μM, 3H-Ado 20 μM, sodium-free buffer
[7] = 3H-Ado 20 μM, sodium-free buffer, read-out: ENT2 IC50 (Ado uptake)

Compound: C[C@H](CCC(=O)O)[C@H]1CC[C@H]2[C@@H]3[C@H](O)C[C@@H]4C[C@H](O)CC[C@]4(C)[C@H]3C[C@H](O)[C@]12C [CA, cholic acid]
- IC50 [1, 4]: 42.1 ± 8.7 µM
- ENT1 % uptake inhibition (Ado) [1]: 45.48%
- IC50 [2, 5]: 1.2 ± 0.4 µM
- ENT3 % uptake inhibition (Ado) [2, 6]: 77.1%
- IC50 [3, 7]: 7.1 ± 1.6 µM
- ENT2 % uptake inhibition (Ado) [3, 6]: 74.58%

Compound: C[C@H](CCC(=O)O)[C@H]1CC[C@H]2[C@@H]3CC[C@@H]4C[C@H](O)CC[C@]4(C)[C@H]3C[C@H](O)[C@]12C [DCA, deoxycholic acid]
- IC50 [1, 4]: 56.4 ± 14.9 µM
- ENT1 % uptake inhibition (Ado) [1]: 69% and 71.01%
- IC50 [2, 5]: 0.6 ± 0.1 µM
- ENT3 % uptake inhibition (Ado) [2, 6]: 79% and 79.9%
- inhibition of guanosine transport activity of ENT3 ([2]; BA 100 μM, 3H-guanosine 20 μM): inhibited
- IC50 [3, 7]: 0.9 ± 0.2 µM
- ENT2 % uptake inhibition (Ado) [3, 6]: 65% and 64.77%
- inhibition of guanosine transport mediated by ENT2 ([3]; BA 100 μM, 3H-guanosine 20 μM): not statistically significant
- inhibition of ENT2-mediated uridine uptake ([3]; BA 100 μM, 3H-uridine 20 μM): inhibition of the ENT2-mediated uridine uptake

Compound: C[C@H](CCC(=O)NCCS(=O)(=O)O)[C@H]1CC[C@H]2[C@@H]3[C@H](O)C[C@@H]4C[C@H](O)CC[C@]4(C)[C@H]3C[C@H](O)[C@]12C [TCA, taurocholic acid]
- ENT1 % uptake inhibition (Ado) [1]: 80.39%
- IC50 ([1]; ENT1 IC50 (Ado uptake)): 52.9 ± 14.6 µM
- IC50 [2]: 52.6 ± 22.2 µM
- ENT3 % uptake inhibition (Ado) [2, 6]: 72.3%
- IC50 [3]: 19.5 ± 4.5 µM
- ENT2 % uptake inhibition (Ado) [3, 6]: 70.68%
